One test concerns Plasmodium falciparum. Nature of the test: Antimalarial activity against chloroquine-resistant Plasmodium falciparum FCK by [3H]hypoxanthine uptake. It is filed as functional, organism-based.
Test [1] is described as follows: Binding affinity to Plasmodium falciparum ATPase6.
Test [2] in a line: Inhibition of Plasmodium falciparum ATPase6 expressed in Xenopus oocytes. It counts as cell-based. The note with it: oocyte.

Structures are written as SMILES.

The IC50 is the point on the concentration scale where inhibition reaches its midpoint. Read a low IC50 as higher potency. `COc1cc(/C=C/C(=O)CC(=O)/C=C/c2ccc(O)c(OC)c2)ccc1O` [CURCUMIN]: the IC50 with Plasmodium falciparum is 15000 nM. What is called Kd is the constant that tells how readily two partners part at equilibrium. In test [1], `COc1cc(/C=C/C(=O)CC(=O)/C=C/c2ccc(O)c(OC)c2)ccc1O` (stereo in doubt; form 2) [CURCUMIN] showed a Kd of 2450 nM. In test [1], `COc1cc(/C=C/C(=O)CC(=O)/C=C/c2ccc(O)c(OC)c2)ccc1O` (stereo in doubt; form 1) [CURCUMIN] came in with a Kd of 1150 nM. As for `C[C@@H]1CC[C@H]2[C@@H](C)C(=O)O[C@@H]3O[C@@]4(C)CC[C@@H]1[C@]32OO4` [ARTEMISININ], half-maximal inhibition in the test with Plasmodium falciparum (IC50) required 45 nM. The molecule further gave a Kd in test [2] of 150 nM.
